Where a SMILES comes first, the peptide text is derived from it. Bridges are numbered along the chain shown (N, C = ends). [ ]: non-standard residue; d: D form. Nle = CCCC[C@H](N)C(=O)O
Target: T1, recombinant human VEGF165 (Homo sapiens, UniProt P15692)
T1 sequence (P15692 27-191 isoform P15692-4): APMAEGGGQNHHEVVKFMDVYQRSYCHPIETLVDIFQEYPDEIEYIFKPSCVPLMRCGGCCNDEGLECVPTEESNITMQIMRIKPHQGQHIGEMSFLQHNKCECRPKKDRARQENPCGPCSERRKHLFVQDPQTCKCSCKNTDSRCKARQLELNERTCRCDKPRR
Experiment: VEGF peptide binding assay (competition ELISA, VEGF165 binding to coated VEGFR2/Fc)
Experimental: High-binding half-well 96-well plates (Costar #3690) were coated with recombinant human VEGFR2/Fc (50 ng/well) in 50 μl PBS, and incubated at 4° C. overnight. After washing the plates three times with 1× washing buffer (KPL Cat#50-65-00) and blocking with Superblock (Scytek #AAA500) at room temperature (RT) for 1 hour, VEGF-peptides of the invention were serially diluted (concentrations: 0.128-10,000 nM) in the presence of 25 ng/ml of recombinant human VEGF165 in […] Superblock, and were then added to the 96-well plates and incubated at RT for 1 hour. Peptides of the invention tested in this fashion were all capped at the amino terminus with a C(O)CH3 group and at the carboxyl terminus with a NH2 group. The plates were then washed three times with washing buffer, and a diluted (1:500) biotinylated anti-human VEGF antibody (R&D systems, Cat# BAF293) was added and incubated at RT for 2 hours. After washing the plates, streptavidin HRP conjugate (1:200 in Superblock) (R&D systems, Cat# DY998) was added to detect the bound anti-VEGF antibody, followed by addition of tetramethylbenzidine (TMB) substrate (Pierce, Cat#34021) for color development. The reaction was stopped with 2 M H2SO4. OD450 was measured using SpectraMax (Molecular Device) with a correction wavelength of 540 nm. The data were analyzed using Prism software. OD450 values were plotted as a function of the concentrations of the VEGF peptides. IC50 values, indicative of the potency of the VEGF peptides to inhibit VEGF-VEGFR2 interaction, were obtained using a sigmoid dose-response curve fit in Prism.

Row | SMILES | IC50
1 | CCCC[C@H](NC(=O)[C@H](CC(C)C)NC(=O)[C@H](CCCNC(=N)N)NC(=O)[C@H](CCC(=O)O)NC(=O)[C@H](Cc1ccccc1)NC(=O)[C@@H]1CSSC[C@H](NC(=O)[C@H](CC(N)=O)NC(=O)[C@@H]2CCCN2C(=O)[C@H](CCC(=O)O)NC(=O)[C@@H](NC(C)=O)C(C)C)C(=O)N[C@@H](CC(=O)O)C(=O)N[C@@H]([C@@H](C)CC)C(=O)N[C@@H](Cc2c[nH]cn2)C(=O)N[C@@H](C(C)C)C(=O)N[C@@H](CCSC)C(=O)N[C@@H](Cc2c[nH]c3ccccc23)C(=O)N[C@@H](C(C)C)C(=O)N[C@@H](Cc2c[nH]c3ccccc23)C(=O)N[C@@H](CCC(=O)O)C(=O)N1)C(=O)N[C@@H](CCCCN)C(N)=O [Compound 54, V-E-P-N-C-D-I-H-V-M-W-V-W-E-C-F-E-R-L-(Nle)-K] (Ac-VEPNCDIHVMWVWECFERL[Nle]K-NH2; disulfide 5-15 (inferred)) | 28.6 nM
2 | CC[C@H](C)[C@@H]1NC(=O)[C@H](CC(=O)O)NC(=O)[C@@H](NC(=O)[C@H](CC(N)=O)NC(=O)[C@@H]2CCCN2C(=O)[C@H](CCC(=O)O)NC(=O)[C@@H](NC(C)=O)C(C)C)CSSC[C@@H](C(=O)N[C@@H](Cc2ccccc2)C(=O)N[C@@H](CCC(=O)O)C(=O)N[C@@H](CCCNC(=N)N)C(=O)N[C@@H](CC(C)C)C(=O)N[C@@H](Cc2ccc(O)cc2)C(=O)NCC(=O)NCC(=O)N[C@@H](Cc2ccccc2)C(N)=O)NC(=O)[C@H](CCC(=O)O)NC(=O)[C@H](Cc2c[nH]c3ccccc23)NC(=O)[C@H](C(C)C)NC(=O)[C@H](Cc2c[nH]c3ccccc23)NC(=O)[C@H](CCSC)NC(=O)[C@H](C(C)C)NC(=O)[C@H](Cc2c[nH]cn2)NC1=O [Compound 56, VEPNCDIHVMWVWECFERLYGGF] (Ac-VEPNCDIHVMWVWECFERLYGGF-NH2; disulfide 5-15 (inferred)) | 26.2 nM
3 | CC[C@H](C)[C@H](NC(=O)[C@H](CC(C)C)NC(=O)[C@H](CCCNC(=N)N)NC(=O)[C@H](CCC(=O)O)NC(=O)[C@H](Cc1ccccc1)NC(=O)[C@@H]1CSSC[C@H](NC(=O)[C@H](CC(N)=O)NC(=O)[C@@H]2CCCN2C(=O)[C@H](CCC(=O)O)NC(=O)[C@@H](NC(C)=O)C(C)C)C(=O)N[C@@H](CC(=O)O)C(=O)N[C@@H]([C@@H](C)CC)C(=O)N[C@@H](Cc2c[nH]cn2)C(=O)N[C@@H](C(C)C)C(=O)N[C@@H](CCSC)C(=O)N[C@@H](Cc2c[nH]c3ccccc23)C(=O)N[C@@H](C(C)C)C(=O)N[C@@H](Cc2c[nH]c3ccccc23)C(=O)N[C@@H](CCC(=O)O)C(=O)N1)C(=O)N[C@@H](CCCCN)C(N)=O [Compound 57, VEPNCDIHVMWVWECFERLIK] (Ac-VEPNCDIHVMWVWECFERLIK-NH2; disulfide 5-15 (inferred)) | 25.4 nM
4 | CC[C@H](C)[C@@H]1NC(=O)[C@H](CC(=O)O)NC(=O)[C@@H](NC(=O)[C@H](CC(N)=O)NC(=O)[C@@H]2CCCN2C(=O)[C@H](CCC(=O)O)NC(=O)[C@@H](NC(C)=O)C(C)C)CSSC[C@@H](C(=O)N[C@@H](Cc2ccccc2)C(=O)N[C@@H](CCC(=O)O)C(=O)N[C@@H](CCCNC(=N)N)C(=O)N[C@@H](CC(C)C)C(=O)N[C@@H](Cc2ccc(O)cc2)C(=O)N[C@@H](CCCCN)C(N)=O)NC(=O)[C@H](CCC(=O)O)NC(=O)[C@H](Cc2c[nH]c3ccccc23)NC(=O)[C@H](C(C)C)NC(=O)[C@H](Cc2c[nH]c3ccccc23)NC(=O)[C@H](CCSC)NC(=O)[C@H](C(C)C)NC(=O)[C@H](Cc2c[nH]cn2)NC1=O [Compound 58, VEPNCDIHVMWVWECFERLYK] (Ac-VEPNCDIHVMWVWECFERLYK-NH2; disulfide 5-15 (inferred)) | 25.1 nM
5 | CC[C@H](C)[C@@H]1NC(=O)[C@H](CC(=O)O)NC(=O)[C@@H](NC(=O)[C@H](CC(N)=O)NC(=O)[C@@H]2CCCN2C(=O)[C@H](CCC(=O)O)NC(=O)[C@@H](NC(C)=O)C(C)C)CSSC[C@@H](C(=O)N[C@@H](Cc2ccccc2)C(=O)N[C@@H](CCC(=O)O)C(=O)N[C@@H](CCCNC(=N)N)C(=O)N[C@@H](CC(C)C)C(=O)N[C@@H](CCSC)C(=O)NCC(=O)N[C@@H](CC(C)C)C(=O)N[C@H](C(N)=O)[C@@H](C)O)NC(=O)[C@H](CCC(=O)O)NC(=O)[C@H](Cc2c[nH]c3ccccc23)NC(=O)[C@H](C(C)C)NC(=O)[C@H](Cc2c[nH]c3ccccc23)NC(=O)[C@H](CCSC)NC(=O)[C@H](C(C)C)NC(=O)[C@H](Cc2c[nH]cn2)NC1=O [Compound 59, VEPNCDIHVMWVWECFERLMGLT] (Ac-VEPNCDIHVMWVWECFERLMGLT-NH2; disulfide 5-15 (inferred)) | 25 nM
6 | CC[C@H](C)[C@@H]1NC(=O)[C@H](CC(=O)O)NC(=O)[C@@H](NC(=O)[C@H](CC(N)=O)NC(=O)[C@@H]2CCCN2C(=O)[C@H](CCC(=O)O)NC(=O)[C@@H](NC(C)=O)C(C)C)CSSC[C@@H](C(=O)N[C@@H](Cc2ccccc2)C(=O)N[C@@H](CCC(=O)O)C(=O)N[C@@H](CCCNC(=N)N)C(=O)N[C@@H](CC(C)C)C(=O)N[C@H](CC(C)C)C(=O)N[C@@H](CCCCNC(C)=O)C(N)=O)NC(=O)[C@H](CCC(=O)O)NC(=O)[C@H](Cc2c[nH]c3ccccc23)NC(=O)[C@H](C(C)C)NC(=O)[C@H](Cc2c[nH]c3ccccc23)NC(=O)[C@H](CCSC)NC(=O)[C@H](C(C)C)NC(=O)[C@H](Cc2c[nH]cn2)NC1=O [Compound 60, V-E-P-N-C-D-I-H-V-M-W-V-W-E-C-F-E-R-L-(D-Leu)-(Kac)] (Ac-VEPNCDIHVMWVWECFERL[dL]K(Ac)-NH2; disulfide 5-15 (inferred)) | 25 nM
7 | CC[C@H](C)[C@@H]1NC(=O)[C@H](CC(=O)O)NC(=O)[C@@H](NC(=O)[C@H](CC(N)=O)NC(=O)[C@@H]2CCCN2C(=O)[C@H](CCC(=O)O)NC(=O)[C@@H](NC(C)=O)C(C)C)CSSC[C@@H](C(=O)N[C@@H](Cc2ccccc2)C(=O)N[C@@H](CCC(=O)O)C(=O)N[C@@H](CCCNC(=N)N)C(=O)N[C@@H](CC(C)C)C(=O)N[C@@H](Cc2ccc(O)cc2)C(=O)NCC(=O)NCC(=O)NCC(N)=O)NC(=O)[C@H](CCC(=O)O)NC(=O)[C@H](Cc2c[nH]c3ccccc23)NC(=O)[C@H](C(C)C)NC(=O)[C@H](Cc2c[nH]c3ccccc23)NC(=O)[C@H](CCSC)NC(=O)[C@H](C(C)C)NC(=O)[C@H](Cc2c[nH]cn2)NC1=O [Compound 61, VEPNCDIHVMWVWECFERLYGGG] (Ac-VEPNCDIHVMWVWECFERLYGGG-NH2; disulfide 5-15 (inferred)) | 23.6 nM
8 | CC[C@H](C)[C@@H]1NC(=O)[C@H](CC(=O)O)NC(=O)[C@@H](NC(=O)[C@H](CC(N)=O)NC(=O)[C@@H]2CCCN2C(=O)[C@H](CCC(=O)O)NC(=O)[C@@H](NC(C)=O)C(C)C)CSSC[C@@H](C(=O)N[C@@H](Cc2ccccc2)C(=O)N[C@@H](CCC(=O)O)C(=O)N[C@@H](CCCNC(=N)N)C(=O)N[C@@H](CC(C)C)C(=O)N[C@@H](CCSC)C(=O)N[C@@H](CCCCN)C(N)=O)NC(=O)[C@H](CCC(=O)O)NC(=O)[C@H](Cc2c[nH]c3ccccc23)NC(=O)[C@H](C(C)C)NC(=O)[C@H](Cc2c[nH]c3ccccc23)NC(=O)[C@H](CCSC)NC(=O)[C@H](C(C)C)NC(=O)[C@H](Cc2c[nH]cn2)NC1=O [Compound 62, VEPNCDIHVMWVWECFERLMK] (Ac-VEPNCDIHVMWVWECFERLMK-NH2; disulfide 5-15 (inferred)) | 25 nM

— patent publication US8937048B2, “Anti-angiogenic compounds” (Covx Technologies Ireland, Limited, priority 2008, dated 2015)
